Measurements as given in ChEMBL document CHEMBL5715260, “Selectivity Literature for EUbOPEN Chemogenomic Library” (2024).

Experiments:
Parameters in all cases: recommended concentration 1 uM
[1] = molecular target: T1, Hepatocyte nuclear factor 4-alpha (Homo sapiens) (UniProt P41235); test: Selectivity interaction (Reporter gene assay) EUB0001142a HNF4A
T1 sequence (whole entry): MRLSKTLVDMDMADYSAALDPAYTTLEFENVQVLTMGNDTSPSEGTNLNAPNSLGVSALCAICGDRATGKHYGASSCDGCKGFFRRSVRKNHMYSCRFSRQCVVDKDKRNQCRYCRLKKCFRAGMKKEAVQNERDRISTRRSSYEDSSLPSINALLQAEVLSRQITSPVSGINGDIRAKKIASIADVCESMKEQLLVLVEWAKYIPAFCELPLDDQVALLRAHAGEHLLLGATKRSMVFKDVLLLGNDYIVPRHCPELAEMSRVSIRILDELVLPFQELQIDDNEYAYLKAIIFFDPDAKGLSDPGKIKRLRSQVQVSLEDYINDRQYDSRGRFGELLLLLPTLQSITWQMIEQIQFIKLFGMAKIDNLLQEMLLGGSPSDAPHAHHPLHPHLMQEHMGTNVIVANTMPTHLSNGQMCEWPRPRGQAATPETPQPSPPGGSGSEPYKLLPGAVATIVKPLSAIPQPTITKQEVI

[2] = molecular target: T2, Nuclear receptor subfamily 2 group C member 1 (Homo sapiens) (UniProt P13056); test: Selectivity interaction (Reporter gene assay) EUB0001142a NR2C1
T2 sequence (whole entry): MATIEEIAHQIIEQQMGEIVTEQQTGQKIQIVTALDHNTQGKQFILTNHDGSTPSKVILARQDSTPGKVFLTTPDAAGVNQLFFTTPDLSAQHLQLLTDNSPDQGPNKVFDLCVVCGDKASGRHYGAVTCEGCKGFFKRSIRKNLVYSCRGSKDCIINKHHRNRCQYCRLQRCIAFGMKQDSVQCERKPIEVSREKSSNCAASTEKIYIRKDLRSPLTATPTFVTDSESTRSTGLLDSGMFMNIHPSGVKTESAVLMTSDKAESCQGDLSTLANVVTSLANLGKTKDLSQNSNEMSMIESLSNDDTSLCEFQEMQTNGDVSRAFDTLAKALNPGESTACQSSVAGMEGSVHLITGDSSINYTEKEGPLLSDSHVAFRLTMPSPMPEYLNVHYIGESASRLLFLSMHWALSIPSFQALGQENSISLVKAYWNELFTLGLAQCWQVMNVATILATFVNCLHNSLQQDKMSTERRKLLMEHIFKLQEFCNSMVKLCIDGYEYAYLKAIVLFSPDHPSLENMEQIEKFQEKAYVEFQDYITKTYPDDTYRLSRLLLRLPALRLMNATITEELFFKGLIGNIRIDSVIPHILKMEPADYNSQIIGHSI

[3] = molecular target: Nuclear receptor subfamily 2 group E member 1 (Homo sapiens) (UniProt Q9Y466); test: Selectivity interaction (Reporter gene assay) EUB0001142a NR2E1
Nuclear receptor subfamily 2 group E member 1 (Homo sapiens), sequence (Q9Y466 whole entry): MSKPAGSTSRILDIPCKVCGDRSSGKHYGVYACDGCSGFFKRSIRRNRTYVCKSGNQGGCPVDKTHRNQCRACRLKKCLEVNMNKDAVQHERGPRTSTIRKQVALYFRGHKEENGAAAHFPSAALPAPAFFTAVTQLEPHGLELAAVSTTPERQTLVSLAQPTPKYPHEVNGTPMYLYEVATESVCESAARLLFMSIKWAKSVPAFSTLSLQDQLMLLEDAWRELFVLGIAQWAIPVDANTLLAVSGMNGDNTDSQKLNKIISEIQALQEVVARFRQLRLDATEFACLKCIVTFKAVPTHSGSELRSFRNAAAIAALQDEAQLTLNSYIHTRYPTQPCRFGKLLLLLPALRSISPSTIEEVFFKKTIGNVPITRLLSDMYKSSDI

[4] = molecular target: Nuclear receptor subfamily 4immunitygroup A member 1 (Homo sapiens) (UniProt P22736); test: Selectivity interaction (Reporter gene assay) EUB0001142a NR4A1
Nuclear receptor subfamily 4immunitygroup A member 1 (Homo sapiens), sequence (P22736 whole entry): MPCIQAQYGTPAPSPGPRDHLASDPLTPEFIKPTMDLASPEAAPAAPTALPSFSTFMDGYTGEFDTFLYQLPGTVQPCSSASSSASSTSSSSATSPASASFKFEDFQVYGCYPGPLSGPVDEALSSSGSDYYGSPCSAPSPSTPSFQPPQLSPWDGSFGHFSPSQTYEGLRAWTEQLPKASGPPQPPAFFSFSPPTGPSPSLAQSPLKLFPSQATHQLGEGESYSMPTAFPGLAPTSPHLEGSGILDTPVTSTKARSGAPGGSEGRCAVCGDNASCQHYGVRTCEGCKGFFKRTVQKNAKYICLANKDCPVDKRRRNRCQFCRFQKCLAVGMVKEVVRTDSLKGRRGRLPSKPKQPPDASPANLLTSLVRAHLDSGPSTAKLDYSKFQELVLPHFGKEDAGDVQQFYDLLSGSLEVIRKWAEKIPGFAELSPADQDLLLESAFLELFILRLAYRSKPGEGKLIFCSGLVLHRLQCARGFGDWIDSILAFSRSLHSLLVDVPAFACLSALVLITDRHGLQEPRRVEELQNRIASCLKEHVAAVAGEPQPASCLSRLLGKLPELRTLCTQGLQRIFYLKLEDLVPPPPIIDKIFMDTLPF

[5] = molecular target: Steroidogenic factor 1 (Homo sapiens) (UniProt Q13285); test: Selectivity interaction (Reporter gene assay) EUB0001142a NR5A1
Steroidogenic factor 1 (Homo sapiens), sequence (Q13285 whole entry): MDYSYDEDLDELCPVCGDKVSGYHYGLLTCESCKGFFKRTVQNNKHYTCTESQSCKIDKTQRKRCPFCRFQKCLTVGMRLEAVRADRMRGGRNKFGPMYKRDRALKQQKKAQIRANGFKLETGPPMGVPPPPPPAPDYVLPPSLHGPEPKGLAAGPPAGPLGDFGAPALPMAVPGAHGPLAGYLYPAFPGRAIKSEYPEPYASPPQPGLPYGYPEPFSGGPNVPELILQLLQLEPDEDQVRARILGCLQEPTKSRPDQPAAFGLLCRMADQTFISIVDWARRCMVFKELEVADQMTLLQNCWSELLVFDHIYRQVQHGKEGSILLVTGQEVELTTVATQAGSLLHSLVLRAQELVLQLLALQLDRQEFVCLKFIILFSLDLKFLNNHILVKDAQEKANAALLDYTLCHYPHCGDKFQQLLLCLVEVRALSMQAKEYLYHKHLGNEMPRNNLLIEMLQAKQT

[6] = molecular target: T3, Alpha trans-inducing protein (Human alphaherpesvirus 1) (UniProt A0A5J6DW59); test: Selectivity interaction (Reporter gene assay) EUB0001142a UL48
T3 sequence (A0A5J6DW59 as listed by the source): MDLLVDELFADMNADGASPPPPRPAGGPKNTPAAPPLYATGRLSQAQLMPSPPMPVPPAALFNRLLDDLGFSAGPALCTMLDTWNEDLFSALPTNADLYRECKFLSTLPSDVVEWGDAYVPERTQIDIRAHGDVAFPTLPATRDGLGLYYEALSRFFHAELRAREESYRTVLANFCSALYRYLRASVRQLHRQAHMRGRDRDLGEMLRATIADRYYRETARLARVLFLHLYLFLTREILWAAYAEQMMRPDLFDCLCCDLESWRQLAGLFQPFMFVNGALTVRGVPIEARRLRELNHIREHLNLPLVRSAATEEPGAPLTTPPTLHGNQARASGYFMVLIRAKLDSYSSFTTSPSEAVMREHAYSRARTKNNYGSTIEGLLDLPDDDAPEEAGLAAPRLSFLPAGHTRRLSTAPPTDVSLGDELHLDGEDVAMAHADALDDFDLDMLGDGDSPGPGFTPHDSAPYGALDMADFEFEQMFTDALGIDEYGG

[7] = molecular target: Peroxisome proliferator-activated receptor delta (Homo sapiens) (UniProt Q03181); test: Selectivity interaction (Reporter gene assay) EUB0001140a PPARD; settings: screened at recom. conc., Selectivity number of off-targets 1.0, Selectivity number of targets 19.0, Source Knowledge inhouse
Peroxisome proliferator-activated receptor delta (Homo sapiens), sequence (Q03181 whole entry): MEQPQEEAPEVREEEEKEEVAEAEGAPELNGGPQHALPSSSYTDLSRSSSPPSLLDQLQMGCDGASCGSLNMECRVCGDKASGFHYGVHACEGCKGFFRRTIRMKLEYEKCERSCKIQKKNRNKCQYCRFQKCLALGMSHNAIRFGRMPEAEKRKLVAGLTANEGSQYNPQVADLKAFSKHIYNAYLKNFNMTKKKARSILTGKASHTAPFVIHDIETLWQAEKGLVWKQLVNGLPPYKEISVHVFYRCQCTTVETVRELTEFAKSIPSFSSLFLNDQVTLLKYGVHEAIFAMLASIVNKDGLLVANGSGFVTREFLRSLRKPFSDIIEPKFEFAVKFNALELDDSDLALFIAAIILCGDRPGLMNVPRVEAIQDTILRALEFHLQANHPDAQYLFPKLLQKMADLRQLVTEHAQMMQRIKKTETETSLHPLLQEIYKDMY

[8] = molecular target: T1, Hepatocyte nuclear factor 4-alpha (Homo sapiens); test: Selectivity interaction (Reporter gene assay) EUB0001140a HNF4A
[9] = molecular target: T2, Nuclear receptor subfamily 2 group C member 1 (Homo sapiens); test: Selectivity interaction (Reporter gene assay) EUB0001140a NR2C1
[10] = molecular target: Nuclear receptor subfamily 2 group E member 1 (Homo sapiens) (UniProt Q9Y466); test: Selectivity interaction (Reporter gene assay) EUB0001140a NR2E1
[11] = molecular target: Nuclear receptor subfamily 4immunitygroup A member 1 (Homo sapiens) (UniProt P22736); test: Selectivity interaction (Reporter gene assay) EUB0001140a NR4A1
[12] = molecular target: Steroidogenic factor 1 (Homo sapiens) (UniProt Q13285); test: Selectivity interaction (Reporter gene assay) EUB0001140a NR5A1
[13] = molecular target: T3, Alpha trans-inducing protein (Human alphaherpesvirus 1); test: Selectivity interaction (Reporter gene assay) EUB0001140a UL48
[14] = molecular target: T4, Retinoic acid receptor RXR-alpha (Homo sapiens) (UniProt P19793); test: Selectivity interaction (Reporter gene assay) EUB0001140a RXRA
T4 sequence (whole entry): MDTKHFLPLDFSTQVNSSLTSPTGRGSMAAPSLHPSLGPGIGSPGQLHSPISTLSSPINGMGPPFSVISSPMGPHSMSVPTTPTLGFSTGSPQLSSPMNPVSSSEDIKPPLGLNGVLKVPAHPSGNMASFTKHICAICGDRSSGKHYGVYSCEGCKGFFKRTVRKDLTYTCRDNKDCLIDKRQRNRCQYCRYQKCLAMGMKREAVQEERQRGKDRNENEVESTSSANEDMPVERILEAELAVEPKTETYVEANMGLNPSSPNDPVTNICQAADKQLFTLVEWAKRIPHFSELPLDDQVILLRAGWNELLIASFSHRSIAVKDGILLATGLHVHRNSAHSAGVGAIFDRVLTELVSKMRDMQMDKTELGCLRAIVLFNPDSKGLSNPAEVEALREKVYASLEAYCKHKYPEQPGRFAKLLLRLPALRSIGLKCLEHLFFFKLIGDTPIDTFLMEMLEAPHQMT

[15] = molecular target: SRSF protein kinase 1 (Homo sapiens) (UniProt Q96SB4); test: Selectivity interaction (Kinase panel (binding assay)) EUB0001089a SRPK1; settings: at 25 µM
SRSF protein kinase 1 (Homo sapiens), sequence (Q96SB4 whole entry): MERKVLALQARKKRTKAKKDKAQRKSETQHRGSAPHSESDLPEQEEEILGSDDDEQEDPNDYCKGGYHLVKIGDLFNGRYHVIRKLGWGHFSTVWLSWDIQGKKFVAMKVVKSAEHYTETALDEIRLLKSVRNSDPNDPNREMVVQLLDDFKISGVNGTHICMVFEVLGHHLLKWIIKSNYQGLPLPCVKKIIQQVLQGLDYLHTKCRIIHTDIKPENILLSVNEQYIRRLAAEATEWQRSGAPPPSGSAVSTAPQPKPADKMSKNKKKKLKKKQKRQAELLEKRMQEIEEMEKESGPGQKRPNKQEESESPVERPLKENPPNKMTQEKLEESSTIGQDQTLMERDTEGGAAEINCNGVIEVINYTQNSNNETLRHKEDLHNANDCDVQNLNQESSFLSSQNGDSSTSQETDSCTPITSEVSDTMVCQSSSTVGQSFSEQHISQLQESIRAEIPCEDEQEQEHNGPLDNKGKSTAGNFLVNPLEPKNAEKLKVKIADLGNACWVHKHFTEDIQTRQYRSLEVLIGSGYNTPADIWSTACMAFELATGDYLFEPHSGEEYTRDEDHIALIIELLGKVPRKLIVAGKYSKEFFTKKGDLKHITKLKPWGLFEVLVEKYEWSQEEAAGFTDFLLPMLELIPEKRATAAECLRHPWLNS

[16] = molecular target: Nuclear receptor ROR-alpha (Homo sapiens) (UniProt P35398); test: Selectivity interaction (Reporter gene assay) EUB0001136a RORA; settings: screened at recom. conc., Selectivity number of off-targets 3.0, Selectivity number of targets 19.0, Source Knowledge inhouse
Nuclear receptor ROR-alpha (Homo sapiens), sequence (P35398 whole entry): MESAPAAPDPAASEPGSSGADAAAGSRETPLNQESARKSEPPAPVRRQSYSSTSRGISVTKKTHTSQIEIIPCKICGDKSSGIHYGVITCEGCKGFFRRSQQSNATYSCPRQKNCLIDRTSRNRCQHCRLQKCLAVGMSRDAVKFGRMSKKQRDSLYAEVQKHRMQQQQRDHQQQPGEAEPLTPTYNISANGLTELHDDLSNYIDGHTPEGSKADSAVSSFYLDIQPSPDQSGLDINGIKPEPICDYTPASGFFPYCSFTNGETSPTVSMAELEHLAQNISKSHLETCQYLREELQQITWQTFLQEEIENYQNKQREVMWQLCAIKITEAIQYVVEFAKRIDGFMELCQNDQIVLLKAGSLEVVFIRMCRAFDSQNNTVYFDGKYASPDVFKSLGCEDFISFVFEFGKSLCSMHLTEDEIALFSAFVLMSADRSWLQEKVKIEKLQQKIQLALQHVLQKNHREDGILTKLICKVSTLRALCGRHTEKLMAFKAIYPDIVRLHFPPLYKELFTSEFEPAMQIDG

[17] = molecular target: Nuclear receptor ROR-beta (Homo sapiens) (UniProt Q92753); test: Selectivity interaction (Reporter gene assay) EUB0001136a RORB; settings: screened at recom. conc., Selectivity number of off-targets 3.0, Selectivity number of targets 19.0, Source Knowledge inhouse
Nuclear receptor ROR-beta (Homo sapiens), sequence (Q92753 whole entry): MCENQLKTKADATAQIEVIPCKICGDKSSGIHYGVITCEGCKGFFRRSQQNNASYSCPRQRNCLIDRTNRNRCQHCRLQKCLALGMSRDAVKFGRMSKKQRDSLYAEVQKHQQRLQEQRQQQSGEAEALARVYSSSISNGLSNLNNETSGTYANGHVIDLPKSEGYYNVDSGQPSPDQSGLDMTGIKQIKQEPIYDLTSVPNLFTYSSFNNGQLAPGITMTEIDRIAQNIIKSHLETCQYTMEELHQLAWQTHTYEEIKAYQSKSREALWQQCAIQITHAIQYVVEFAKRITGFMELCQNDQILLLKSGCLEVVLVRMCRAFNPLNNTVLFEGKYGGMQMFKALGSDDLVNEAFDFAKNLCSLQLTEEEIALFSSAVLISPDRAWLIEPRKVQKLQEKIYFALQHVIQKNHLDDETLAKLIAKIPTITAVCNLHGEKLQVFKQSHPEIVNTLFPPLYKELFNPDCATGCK

[18] = molecular target: Nuclear receptor ROR-gamma (Homo sapiens) (UniProt P51449); test: Selectivity interaction (Reporter gene assay) EUB0001136a RORC; settings: screened at recom. conc., Selectivity number of off-targets 3.0, Selectivity number of targets 19.0, Source Knowledge inhouse
Nuclear receptor ROR-gamma (Homo sapiens), sequence (P51449 whole entry): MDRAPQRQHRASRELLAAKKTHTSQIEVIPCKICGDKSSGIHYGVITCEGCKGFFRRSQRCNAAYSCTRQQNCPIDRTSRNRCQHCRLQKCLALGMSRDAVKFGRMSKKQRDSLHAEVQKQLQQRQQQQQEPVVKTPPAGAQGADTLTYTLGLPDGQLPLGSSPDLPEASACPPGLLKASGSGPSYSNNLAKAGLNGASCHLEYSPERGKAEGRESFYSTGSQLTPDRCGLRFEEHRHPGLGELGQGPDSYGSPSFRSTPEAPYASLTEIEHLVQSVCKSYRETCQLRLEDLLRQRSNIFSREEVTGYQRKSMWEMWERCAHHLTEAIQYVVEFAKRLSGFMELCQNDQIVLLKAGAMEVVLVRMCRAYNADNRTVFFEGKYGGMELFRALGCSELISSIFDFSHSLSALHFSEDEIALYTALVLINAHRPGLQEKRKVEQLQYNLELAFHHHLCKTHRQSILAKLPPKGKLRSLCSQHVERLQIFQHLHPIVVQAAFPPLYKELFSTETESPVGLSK

[19] = molecular target: Nuclear receptor subfamily 2 group E member 1 (Homo sapiens) (UniProt Q9Y466); test: Selectivity interaction (Reporter gene assay) EUB0001136a NR2E1; settings: screened at recom. conc., Selectivity number of off-targets 2.0, Selectivity number of targets 5.0, Source Knowledge inhouse
[20] = molecular target: Steroidogenic factor 1 (Homo sapiens) (UniProt Q13285); test: Selectivity interaction (Reporter gene assay) EUB0001136a NR5A1; settings: screened at recom. conc., Selectivity number of off-targets 2.0, Selectivity number of targets 5.0, Source Knowledge inhouse
[21] = molecular target: T3, Alpha trans-inducing protein (Human alphaherpesvirus 1); test: Selectivity interaction (Reporter gene assay) EUB0001136a UL48
[22] = molecular target: T1, Hepatocyte nuclear factor 4-alpha (Homo sapiens); test: Selectivity interaction (Reporter gene assay) EUB0001136a HNF4A
[23] = molecular target: T2, Nuclear receptor subfamily 2 group C member 1 (Homo sapiens); test: Selectivity interaction (Reporter gene assay) EUB0001136a NR2C1
[24] = molecular target: Nuclear receptor subfamily 4immunitygroup A member 1 (Homo sapiens) (UniProt P22736); test: Selectivity interaction (Reporter gene assay) EUB0001136a NR4A1
[25] = molecular target: T5, Peroxisome proliferator-activated receptor gamma (Homo sapiens) (UniProt P37231); test: Selectivity interaction (Reporter gene assay) EUB0001141a PPARG; settings: screened at recom. conc., Selectivity number of off-targets 1.0, Selectivity number of targets 19.0, Source Knowledge inhouse
T5 sequence (whole entry): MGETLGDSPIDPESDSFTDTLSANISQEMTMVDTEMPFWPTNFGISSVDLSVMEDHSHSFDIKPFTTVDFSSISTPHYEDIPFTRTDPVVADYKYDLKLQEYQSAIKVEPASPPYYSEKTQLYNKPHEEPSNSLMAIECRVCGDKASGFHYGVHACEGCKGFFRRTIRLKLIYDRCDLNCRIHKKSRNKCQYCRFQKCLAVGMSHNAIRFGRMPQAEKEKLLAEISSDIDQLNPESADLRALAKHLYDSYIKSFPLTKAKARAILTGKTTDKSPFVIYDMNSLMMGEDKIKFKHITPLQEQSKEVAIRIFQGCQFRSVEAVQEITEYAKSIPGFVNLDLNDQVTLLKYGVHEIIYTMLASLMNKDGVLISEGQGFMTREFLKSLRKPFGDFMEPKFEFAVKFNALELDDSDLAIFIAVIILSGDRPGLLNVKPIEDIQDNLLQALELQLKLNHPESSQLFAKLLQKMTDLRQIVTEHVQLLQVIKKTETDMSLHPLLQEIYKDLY

[26] = molecular target: T1, Hepatocyte nuclear factor 4-alpha (Homo sapiens); test: Selectivity interaction (Reporter gene assay) EUB0001141a HNF4A
[27] = molecular target: T2, Nuclear receptor subfamily 2 group C member 1 (Homo sapiens); test: Selectivity interaction (Reporter gene assay) EUB0001141a NR2C1
[28] = molecular target: Nuclear receptor subfamily 2 group E member 1 (Homo sapiens) (UniProt Q9Y466); test: Selectivity interaction (Reporter gene assay) EUB0001141a NR2E1
[29] = molecular target: Nuclear receptor subfamily 4immunitygroup A member 1 (Homo sapiens) (UniProt P22736); test: Selectivity interaction (Reporter gene assay) EUB0001141a NR4A1
[30] = molecular target: Steroidogenic factor 1 (Homo sapiens) (UniProt Q13285); test: Selectivity interaction (Reporter gene assay) EUB0001141a NR5A1
[31] = molecular target: T3, Alpha trans-inducing protein (Human alphaherpesvirus 1); test: Selectivity interaction (Reporter gene assay) EUB0001141a UL48
[32] = molecular target: T4, Retinoic acid receptor RXR-alpha (Homo sapiens); test: Selectivity interaction (Reporter gene assay) EUB0001141a RXRA; settings: reference bexarotene 1 uM, Selectivity number of off-targets 0.0, Selectivity number of targets 1.0, Source Knowledge inhouse

With `CCCCCCCN(CCc1ccc(SC(C)(C)C(=O)O)cc1)C(=O)Nc1ccc(F)cc1F` the Fold activation [1] was 1, the Fold activation [2] was 1.16 and the Remaining activity [3] was 0.821. It also gave a Fold activation [4] of 1, a Fold activation [5] of 1 and a P-value [6] of 0.0039.
Work on `COc1ccc(OC(=O)N(CC(=O)O)Cc2ccc(OCCc3nc(-c4ccccc4)oc3C)cc2)cc1` yielded a Fold activation [7] of 6.61, a Remaining activity [8] of 0.799 and a Remaining activity [9] of 0.747. For the same molecule, the Remaining activity [10] was 0.91, the Fold activation [11] was 1.19 and the Remaining activity [12] was 0.916. The P-value [13] was 2.24e-06 and the Relative activation [14] was 0.862%.
`CN1CC(C(=O)NCc2ccc3c(-c4cccc(C(N)=S)c4)cn(C4CCN(S(=O)(=O)C(F)(F)F)CC4)c3c2)C1` showed an inhibition [15] of 60%.
Molecule `CC(C=CC1=C(C)CCCC1(C)C)=CC=CC(C)=CC(=O)O` has a Remaining activity [16] of 0.56, a Remaining activity [17] of 0.531 and a Remaining activity [18] of 0.461. The Remaining activity [19] was 0.42, the Remaining activity [20] was 0.42 and the P-value [21] was 0.000127. For the same molecule, the Remaining activity [22] was 0.532, the Remaining activity [23] was 0.503 and the Remaining activity [24] was 0.986.
`Cc1nc(-c2ccc(C(F)(F)F)cc2)sc1C(=O)NCc1ccc(OC(C)(C)C(=O)O)cc1` was tested, and the Fold activation [25] was 2.82, the Remaining activity [26] was 0.924 and the Remaining activity [27] was 0.982. It also gave a Fold activation [28] of 0.997, a Remaining activity [29] of 0.875 and a Fold activation [30] of 1.12. It also gave a P-value [31] of 7.52e-07 and a Relative activation [32] of 0.895%.
